Reference: publication PMC6985722 (Antimicrobial Agents and Chemotherapy, 2020)
Where “and” joins values, the source holds several entries; their conditions need not be identical. Identical values can stand only once.

How the values were obtained:
RSV-A Memphis-37b [1] = experiment: RSV human challenge study: viral load in nasal wash by RT-qPCR; type: in vivo; details: for AUC of viral load (RT-qPCR), fixed time period of 6.5 days, mean (SE) / AUC of viral load (RT-qPCR), fixed time period of 6.5 days, reduction in mean vs placebo: fixed 6.5 days
Description: (§1) Subjects were screened outside the RSV season for eligibility, including measurement of RSV-A Memphis-37b-specific neutralizing antibody titer, ≤90 days before virus challenge. Eligible subjects were admitted to the quarantine unit on day −2 or day −1 and were inoculated intranasally on day 0 with the challenge virus, RSV-A Memphis-37b (4 log10 PFU/ml, given as one 0.4-ml installation per naris), as previously described ([26]). Nasal wash sampling every 12 h for confirmation of RSV infection by qualitative integrated cycler PCR ([12], [19]) began on the morning of day 2. Treatment began 12 h (±1 h) after collection of a nasal wash sample confirming RSV infection or on the evening of day 5 if RSV infection remained unconfirmed by the morning of day 5.
(§2) The study comprised two consecutive cohorts. […] Subjects were discharged on day 12 if nasopharyngeal swab samples tested negative by RSV rapid antigen assay (QuickVue RSV test; Quidel, San Diego, CA, USA). If such tests were positive or if a subject remained symptomatic, quarantine was extended to allow further observation. All subjects were evaluated on day 28 (±3 days).
(§3) Twice-daily collection of nasal wash samples allowed measurement of viral load via RT-qPCR and quantitative culture. RT-qPCR results were reported as PFUe/ml when the standard curve included in each assay contained a known infectious amount (PFU) of RSV, as described previously ([30]). Subjects reported the occurrence and severity of symptoms three times daily using a 10-item subject symptom diary card as previously reported ([12]) (see Supplemental Methods). Throughout the quarantine period, used tissues were collected and weighed daily, and total nasal mucus weight was recorded. PK assessments were based on venous blood samples. Safety assessments included measurement of vital signs, standard 12-lead ECG recordings, spirometry, a complete physical examination, and a respiratory-directed physical examination. AEs were monitored daily, coded according to the Medical Dictionary for Regulatory Activities Version 20.0, and graded according to the National Cancer Institute Common Terminology Criteria for Adverse Events Version 4.0 (see Supplemental Methods for further details).
(§4) The primary efficacy endpoint was AUC for RSV viral load, as measured by RT-qPCR, in nasal wash samples taken twice daily from just before the first dose until discharge (day 12). Viral load data were provided as log10 PFUe/ml; AUC (log10 PFUe/ml · h) was calculated using the trapezoid rule. Secondary efficacy endpoints related to viral load were AUC of RSV viral load, as assessed by quantitative culture, and the following measures, which were each assessed using both RT-qPCR and quantitative culture: peak viral load, time to peak viral load, and time to <1 log10 (for RT-qPCR) or undetectable (for quantitative culture) viral load (considered to occur at the first confirmed undetectable assessment after which no further virus was detected). Secondary efficacy endpoints related to clinical symptoms included AUC total symptom score; peak total symptom score; time to peak total symptom score; and the total weight of nasal mucus produced. Other secondary outcomes were safety, PK, and sequence detection of viral variants (see Supplemental Methods).
(§5) The primary efficacy analysis population (the ITT-I analysis set) comprised all randomized subjects who received challenge virus and at least one dose of study drug and met the criterion for laboratory-confirmed RSV infection (presence of detectable RSV). Sensitivity analyses were based on a subset of the ITT-I population who had first detectable RSV infection prior to study drug administration (the ITT-A analysis set) and a fixed time period of 6.5 days (comprising data for all subjects for 6.5 days of evaluation after the first dose, regardless of the staggered commencement of dosing). […]

RSV-A Memphis-37b [2] = experiment: RSV human challenge study: viral load in nasal wash by quantitative culture; type: in vivo
Description: as §1, §2, §3, §4, §5

[3] = test system: RSV-B (panel of 10 clinical strains); experiment: In vitro susceptibility of RSV by plaque assay, RSV-B; type: cell-based; details: human respiratory syncytial virus
Description: Previous RSV challenge studies achieved antiviral efficacy with peripheral blood trough exposure levels over 3× the protein binding-adjusted in vitro EC90 ([12]). Based on the phase 1 PK data, this level of exposure was predicted to be achieved on or after the first dose in the majority of subjects with a 200-mg dose and to be met or exceeded on or after the first dose in all subjects with a 350-mg dose. The in vitro EC90 was determined using a panel of clinical isolates of RSV (Table S7).
EC50 range (nM) EC90 range (nM)
EC50 and EC 90 were determined by plaque assay.
EC50, 50% effective concentration; EC90, 90% effective concentration; RSV, respiratory

RSV-A clinical isolates = test system: RSV-A clinical isolates; parameters: method as in ref 16 = [16]; 16. Cockerill GS , Bedernjak A , Brookes D , Dowey R , Harland R , Johnson SM , Mathews N , Paradowski M , Peeples M , Scott C , Steadman M , Taylor G , Thom M , Thomas E , Ward SE , Watterson D , You; details: n = 20 isolates; cited from earlier work
[4] = 200 mg, ITT-A, fixed time period of 6.5 days
[5] = 350 mg, ITT-A, fixed time period of 6.5 days
[6] = 200 mg, ITT-I, fixed time period of 6.5 days
[7] = 350 mg, ITT-I, fixed time period of 6.5 days

## NCc1ccc2c(c1)nc(CN1C(=O)C3(CC3)c3ccc(F)cc31)n2CCCC(F)(F)F [RV521]
RSV-A Memphis-37b [1]; 200 mg, ITT-A
  AUC of viral load (RT-qPCR), mean (SE): 236.81 (37.63) hours x log 10 PFUe/mL
  AUC of viral load (RT-qPCR), reduction in mean vs placebo: 59.74%
  Peak viral load (RT-qPCR), mean (SE): 3.63 (0.26) log10 PFUe/mL
  Time to <1 log10 viral load (RT-qPCR), median (Q1, Q3): 3.0 (3.0, 6.0) days
  Time to peak viral load (RT-qPCR), mean (SE): 0.94 (0.11) days
RSV-A Memphis-37b [1]; [4]
  AUC of viral load (RT-qPCR), mean (SE): 234.29 (37.07) log10 PFUe/mL x hours
  AUC of viral load (RT-qPCR), reduction in mean vs placebo: –276.21 log10 PFUe/mL x hours
RSV-A Memphis-37b [1]; 200 mg, ITT-I
  AUC of viral load (RT-qPCR), mean (SE): 224.35 log10 PFUe/ml · h and 224.35 (37.60) log10 PFUe/ml · h
  AUC of viral load (RT-qPCR), reduction in mean vs that of placebo: 55.25%
  AUC of viral load (RT-qPCR, unlogged), mean (SE): 1,087,294.53 (604,070.11) PFUe/ml · h
  AUC of viral load (RT-qPCR, unlogged), reduction in mean vs that of placebo: 99.10%
  Peak viral load (RT-qPCR), mean (SE): 3.47 log10 PFUe/ml and 3.47 (0.30) log10 PFUe/ml
  Time to <1 log10 viral load (RT-qPCR), median (Q1, Q3): 3.0 days and 3.0 (3.0, 6.0) (n = 17) days
  Time to peak viral load (RT-qPCR), mean (SE): 0.95 days and 0.95 (0.11) days
  Mean viral load at time of peak viral load in placebo arm (day 3; RT-qPCR), mean (SE): 1.35 (0.36) log10 PFUe/ml
  AUC of viral load (RT-qPCR), fixed time period of 6.5 days, mean (SE): 221.98 (37.05) log10 PFUe/ml · h
  AUC of viral load (RT-qPCR), fixed time period of 6.5 days, reduction in mean vs placebo: 49.08%
RSV-A Memphis-37b [1]; 350 mg, ITT-A
  AUC of viral load (RT-qPCR), mean (SE): 210.61 (29.76) hours x log 10 PFUe/mL
  AUC of viral load (RT-qPCR), reduction in mean vs placebo: 64.19%
  Peak viral load (RT-qPCR), mean (SE): 3.58 (0.40) log10 PFUe/mL
  Time to <1 log10 viral load (RT-qPCR), median (Q1, Q3): 3.5 (3.0, 4.0) days
  Time to peak viral load (RT-qPCR), mean (SE): 1.65 (0.39) days
RSV-A Memphis-37b [1]; [5]
  AUC of viral load (RT-qPCR), mean (SE): 207.56 (28.74) log10 PFUe/mL x hours
  AUC of viral load (RT-qPCR), reduction in mean vs placebo: –302.95 log10 PFUe/mL x hours
RSV-A Memphis-37b [1]; 350 mg, ITT-I
  AUC of viral load (RT-qPCR), mean (SE): 185.26 log10 PFUe/ml · h and 185.26 (31.17) log10 PFUe/ml · h
  AUC of viral load (RT-qPCR), reduction in mean vs that of placebo: 63.05%
  AUC of viral load (RT-qPCR, unlogged), mean (SE): 1,356,521.31 (1,117,131.13) PFUe/ml · h
  AUC of viral load (RT-qPCR, unlogged), reduction in mean vs that of placebo: 98.87%
  Peak viral load (RT-qPCR), mean (SE): 3.17 log10 PFUe/ml and 3.17 (0.45) log10 PFUe/ml
  Time to <1 log10 viral load (RT-qPCR), median (Q1, Q3): 3.5 days and 3.5 (3.0, 4.0) (n = 13) days
  Time to peak viral load (RT-qPCR), mean (SE): 1.63 days and 1.63 (0.34) days
  Mean viral load at time of peak viral load in placebo arm (day 3; RT-qPCR), mean (SE): 0.80 (1.07) log10 PFUe/ml
  AUC of viral load (RT-qPCR), fixed time period of 6.5 days, mean (SE): 182.59 (30.29) log10 PFUe/ml · h
  AUC of viral load (RT-qPCR), fixed time period of 6.5 days, reduction in mean vs placebo: 58.12%
RSV-A Memphis-37b [2]; 200 mg, ITT-A
  AUC of viral load (quantitative culture), mean (SE): 53.89 (15.47) hours x log10 PFU/mL
  AUC of viral load (quantitative culture), reduction in mean vs placebo: 71.47%
  Peak viral load (quantitative culture), mean (SE): 1.82 (0.41) log10 PFU/mL
  Time to peak viral load (quantitative culture), mean (SE): 3.53 (0.84) days
  Time to undetectable viral load (quantitative culture), median (Q1, Q3): 3 (2, 3.5) days
RSV-A Memphis-37b [2]; 200 mg, ITT-I
  AUC of viral load (quantitative culture), mean (SE): 50.98 (14.89) log10 PFU/ml · h
  AUC of viral load (quantitative culture), reduction in mean vs that of placebo: 68.60%
  Peak viral load (quantitative culture), mean (SE): 1.72 (0.40) log10 PFU/ml
  Time to peak viral load (quantitative culture), mean (SE): 3.69 (0.81) days
  Time to undetectable viral load (quantitative culture), median (Q1, Q3): 3.0 (2.0, 3.5) (n = 11) days
  Mean viral load at time of peak viral load in placebo arm (day 2; quantitative culture), mean (SE): 0.88 (0.30) log10 PFU/ml
RSV-A Memphis-37b [2]; [6]
  AUC of viral load (quantitative culture), mean (SE): 50.98 (14.89) log10 PFU/mL x hours
  AUC of viral load (quantitative culture), reduction in mean vs placebo: 68.60%
RSV-A Memphis-37b [2]; 350 mg, ITT-A
  AUC of viral load (quantitative culture), mean (SE): 43.76 (14.73) hours x log10 PFU/mL
  AUC of viral load (quantitative culture), reduction in mean vs placebo: 76.83%
  Peak viral load (quantitative culture), mean (SE): 1.81 (0.44) log10 PFU/mL
  Time to peak viral load (quantitative culture), mean (SE): 3.47 (0.87) days
  Time to undetectable viral load (quantitative culture), median (Q1, Q3): 2.5 (2, 2.5) days
RSV-A Memphis-37b [2]; [5]
  AUC of viral load (quantitative culture), mean (SE): 43.76 (14.73) log10 PFU/mL x hours
  AUC of viral load (quantitative culture), reduction in mean vs placebo: 76.83%
RSV-A Memphis-37b [2]; 350 mg, ITT-I
  AUC of viral load (quantitative culture), mean (SE): 38.29 (13.36) log10 PFU/ml · h
  AUC of viral load (quantitative culture), reduction in mean vs that of placebo: 76.42%
  Peak viral load (quantitative culture), mean (SE): 1.58 (0.41) log10 PFU/ml
  Time to peak viral load (quantitative culture), mean (SE): 3.85 (0.80) days
  Time to undetectable viral load (quantitative culture), median (Q1, Q3): 2.5 (2.0, 2.5) (n = 9) days
  Mean viral load at time of peak viral load in placebo arm (day 2; quantitative culture), mean (SE): 0.71 (0.32) log10 PFU/ml
RSV-A Memphis-37b [2]; [7]
  AUC of viral load (quantitative culture), mean (SE): 38.29 (13.36) log10 PFU/mL x hours
  AUC of viral load (quantitative culture), reduction in mean vs placebo: 76.42%
[3]; read-out: EC50 range
  EC50: 0.4 to 1.4 nM
[3]; read-out: EC90 range
  EC90: 2 to 10.4 nM
RSV-A clinical isolates
  IC50: 1.4 nM
